# Measured values taken from US6020344A (priority 1998, dated 2000).
# Entries after “also recorded” stand apart in the source; their conditions may differ. Like-named read-outs stand apart in the source and are kept apart here.
# Tests used:
# [1] = test system: Clostridium perfringens sialidase; assay type: biochemical; settings: for binding/inhibition of 5a compared with 5b (in words): 5a vs 5b; for affinity relative to substrate (in words): Ki vs substrate Km; for Ki: Table 1, competitive inhibition fit; for competitive inhibitor potency (in words): summary statement
# [2] = target: T1, Salmonella typhimurium sialidase (Salmonella typhimurium, UniProt P29768); settings: for competitive inhibitor potency (in words): summary statement
# [3] = target: T2, Vibrio cholerae sialidase (Vibrio cholerae serotype O1, UniProt P0C6E9); test: biochemical
# [4] = target: bacterial sialidases; assay type: biochemical; settings: read-out: Ki (range)
# [5] = target: T2, Vibrio cholerae sialidase
# [6] = target: T1, Salmonella typhimurium sialidase; test: biochemical
# [7] = carboxyl group adjacent to the anomeric carbon; cited from earlier work
# [8] = test system: influenza neuraminidase; settings: literature; FANA compared with DANA; cited from earlier work
# [9] = test system: CC(=O)NC1C(O)CC(Oc2ccc([N+](=O)[O-])cc2)(C(=O)O)OC1C(O)C(O)CO; test: purified protein, by the assay type; settings: pH 5.5; 30.0 °C
# T2 sequence (P0C6E9 25-781): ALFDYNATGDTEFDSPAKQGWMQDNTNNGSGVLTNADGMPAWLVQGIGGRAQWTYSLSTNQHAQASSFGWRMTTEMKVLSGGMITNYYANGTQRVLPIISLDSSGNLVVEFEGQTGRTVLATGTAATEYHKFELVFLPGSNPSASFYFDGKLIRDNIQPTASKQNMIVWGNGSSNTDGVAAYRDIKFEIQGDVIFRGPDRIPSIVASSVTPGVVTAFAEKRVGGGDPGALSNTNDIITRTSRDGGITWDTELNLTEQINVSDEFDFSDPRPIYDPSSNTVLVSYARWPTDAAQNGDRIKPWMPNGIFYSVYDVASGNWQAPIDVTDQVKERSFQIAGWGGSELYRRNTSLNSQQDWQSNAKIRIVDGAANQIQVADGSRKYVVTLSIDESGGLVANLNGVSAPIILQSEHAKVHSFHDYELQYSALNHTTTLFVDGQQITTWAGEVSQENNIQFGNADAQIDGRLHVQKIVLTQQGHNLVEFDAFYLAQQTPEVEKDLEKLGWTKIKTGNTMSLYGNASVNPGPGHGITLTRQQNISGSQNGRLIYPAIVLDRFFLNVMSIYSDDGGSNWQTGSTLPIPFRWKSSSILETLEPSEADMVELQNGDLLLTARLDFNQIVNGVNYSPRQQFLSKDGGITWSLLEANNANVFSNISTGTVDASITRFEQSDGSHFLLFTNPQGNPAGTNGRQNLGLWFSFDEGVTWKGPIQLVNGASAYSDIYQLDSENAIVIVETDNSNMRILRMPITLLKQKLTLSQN
# T1 sequence (P29768 whole entry): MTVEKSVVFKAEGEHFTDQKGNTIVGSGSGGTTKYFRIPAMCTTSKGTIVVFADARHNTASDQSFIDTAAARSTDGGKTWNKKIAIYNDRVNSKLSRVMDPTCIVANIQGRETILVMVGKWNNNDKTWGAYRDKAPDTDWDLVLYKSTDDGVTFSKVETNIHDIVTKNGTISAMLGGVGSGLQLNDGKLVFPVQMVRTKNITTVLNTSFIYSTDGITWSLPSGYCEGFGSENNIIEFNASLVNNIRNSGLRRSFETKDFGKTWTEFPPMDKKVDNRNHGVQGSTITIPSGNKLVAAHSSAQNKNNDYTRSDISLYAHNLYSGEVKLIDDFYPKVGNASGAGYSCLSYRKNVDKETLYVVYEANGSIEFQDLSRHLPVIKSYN
molecule,measurement,setting,value
"CC(=O)NC1C(O)CC(Oc2ccc([N+](=O)[O-])cc2)(C(=O)O)OC1C(O)C(O)CO [2-O-(p-nitrophenyl)-a-D-N-acetylneuraminic acid, reference compound]",Km,"[1]; pH 5.5, 30° C.",280 ± 30 µM
"CC(=O)N[C@H]1[C@H](O)CN(C(Cc2ccccc2)C(=O)O)C[C@@H]1O (relative stereo) [±5b, trans-trans-5-N-(1'-carboxy-benzyl-ethyl)-3,5-dihydroxy-4-acetamidopiperidine]",binding of ±5b relative to 5a,[2]; 5b vs 5a,~5 times more tightly
same,binding of ±5b relative to 5a (in words),[2]; 5b vs 5a,bound tighter than 5a
same,type of inhibition (double reciprocal plot),[2]; FIG. 4,competitive
same,binding relative to the p-nitrophenyl glycoside substrate,[2]; Ki vs substrate Km,approximately 2 × tighter
same,competitive inhibitor potency (in words),[2],sub-millimolar competitive inhibitors
same,Ki,[3],1.5 ± 0.2 mM
same,Ki,[4],100 to 1000 µM
same,binding / inhibition (in words),[5],modest inhibitor
same,binding of ±5b relative to 5a (in words),[5]; 5b vs 5a,bound tighter than 5a
same,binding relative to the p-nitrophenyl glycoside substrate,[5]; Ki vs substrate Km,approximately 2 × tighter
same,binding / inhibition (in words),[5]; listed as 5b,bind weakly
same,Ki,[6],0.56 ± 0.03 mM
same,binding/inhibition of 5a compared with 5b (in words),[1],inhibited to the same extent
same,binding/inhibition of 5a compared with 5b (in words),[1]; listed as 5b,no net energetic advantage over binding 5a exists; also recorded: no preference
same,affinity relative to substrate (in words),[1],slightly lower affinity than substrate
same,Ki,"[1]; pH 5.5, 30° C.",500 ± 70 µM
same,competitive inhibitor potency (in words),[1],sub-millimolar competitive inhibitors
CC(=O)N[C@H]1[C@H]([C@H](O)[C@H](O)CO)OC(O)(C(=O)O)C[C@@H]1O (stereo partly drawn) [N-acetyl neuraminic acid],pKa,[7],~ 2.8
"O=C(O)C1=C[C@H](O)[C@@H](NC(=O)C(F)(F)F)[C@H]([C@H](O)[C@H](O)CO)O1 [FANA, 2-deoxy-2,3-dehydro-N-(trifluoroacetyl) neuraminic acid]",in vitro inhibition of influenza neuraminidase (in words),[8],greater in vitro activity
Vibrio cholerae sialidase (Vibrio cholerae O1 biovar El Tor str. N16961),Km,[9],2700 µM
CC(=O)N[C@H]1[C@H](O)CN(CC(=O)O)C[C@@H]1O [Compound 5a],competitive inhibitor potency (in words),[2],sub-millimolar competitive inhibitors
same,Ki,[3],> 2 mM
same,Ki,[4],100 to 1000 µM
same,binding / inhibition (in words),[5],bind weakly
same,inhibition at concentrations up to / below 2 mM,"[5]; up to 2 mM 5a, pH 5.5, 30° C.",No inhibition; also recorded: did not show inhibition
same,Ki,[6],2.5 ± 0.4 mM
same,binding/inhibition of 5a compared with 5b (in words),[1],inhibited to the same extent; also recorded: no preference
same,affinity relative to substrate (in words),[1],slightly lower affinity than substrate
same,Ki,"[1]; pH 5.5, 30° C.",400 ± 100 µM
same,competitive inhibitor potency (in words),[1],sub-millimolar competitive inhibitors
Salmonella typhimurium sialidase (Salmonella enterica subsp. enterica serovar Typhimurium str. LT2),Km,[9],1200 µM
"CC(=O)N[C@H]1[C@H]([C@H](O)[C@H](O)CO)OC(C(=O)O)=C[C@@H]1O [DANA, 2-deoxy-2,3-dehydro-N-acetylneuraminic acid]",in vitro inhibition of influenza neuraminidase (in words),[8],effective in vitro inhibitor of NA; also recorded: among the most potent thus far described
